The values below come from PubChem BioAssay AID977628 (Broad Institute, 2014).

As a reminder, the AC50 is the midpoint of the concentration-response curve, whichever way the signal moves.

Records with an inconclusive call do not appear. Activity calls are given as the source filed them.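 How the source made its calls: active means compound lowering the normal-ribosome reporter at least twice as much as the humanized-ribosome reporter, growth loss under a set limit; inconclusive means no clear call, values can overlap the other calls; inactive means the rest.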 Where only a bound is given, the exact number is not on record here.

The first assay deals with E. coli WT GFP strain growth, fluorescence, 24 h. Nature of the assay: E. coli growth inhibition, wild-type GFP versus h24 humanized RFP strain, dose response, h24 mutant RFP vs wild-type GFP, cherry-pick (AID 977628).
Consider `Cc1ccc(OCCn2c(=S)[nH]c3c(N)ncnc32)cc1`, for which the AC50 is > 100 µM (inactive).
With `CN(C)CCCN(C(=O)c1ccc(S(=O)(=O)N(C)Cc2ccccc2)cc1)c1nc2c(F)cccc2s1`, the AC50 is > 100 µM (inactive).
On the same count and under the same terms, under `CN1c2ccc(C#Cc3cccnc3)cc2[C@@H]2[C@@H](CCN2C(=O)c2cccc(F)c2)[C@H]1CO` stands > 100 µM (inactive); under `O=C(CCc1ccccc1)Nc1sc2c(c1C(=O)O)CCCC2`, > 100 µM (inactive); under `Cc1cccc(C)c1-n1nnnc1C1(C)CCC(=O)N1Cc1cccs1` (configuration not stated), > 100 µM (inactive).
As for `CS(=O)(=O)N(CC(=O)N1CCc2ccccc2C1)c1ccc(Br)cc1`, the AC50 was > 100 µM (inactive).
Regarding `O=C(NCc1ccc(-c2nc3ccccc3s2)cc1)c1ccco1`, the AC50 is > 100 µM (inactive).
On the same count and under the same terms, under `O=C(Nc1ccc2c(c1)OCO2)c1cccc(S(=O)(=O)N2CCCC2)c1` stands > 100 µM (inactive); under `CCN(c1ccccc1)S(=O)(=O)c1ccc(Cl)c(C(=O)NCc2ccco2)c1`, > 100 µM (inactive).
On to `COc1ccc(S(=O)(=O)N2CCCCN3[C@@H](CO)[C@H](c4ccc(C#CC(C)C)cc4)[C@@H]3C2)cc1`, for which the AC50 was > 100 µM (inactive).
Take `CCOC(=O)c1[nH]c2ccccc2c1NC(=O)c1ccc(Br)o1`: the AC50 is > 100 µM (inactive).
On the same count and under the same terms, under `CCOc1cccc2sc(N(CCCN(C)C)C(=O)c3ccc(S(=O)(=O)N4CCCCCC4)cc3)nc12` stands > 100 µM (inactive).

Another assay concerns E. coli mixed WT/h24 culture total growth, OD600, 24 h. The description is as above.
Take `Cc1ccc(OCCn2c(=S)[nH]c3c(N)ncnc32)cc1`: the AC50 turned out to be 34.3 µM.
Same read-out and setting: next, `CN(C)CCCN(C(=O)c1ccc(S(=O)(=O)N(C)Cc2ccccc2)cc1)c1nc2c(F)cccc2s1`: 39.3 µM.
Consider `CN1c2ccc(C#Cc3cccnc3)cc2[C@@H]2[C@@H](CCN2C(=O)c2cccc(F)c2)[C@H]1CO`, for which the AC50 is greater than 100 µM.
In the case of `O=C(CCc1ccccc1)Nc1sc2c(c1C(=O)O)CCCC2`, the AC50 was 52.3 µM.
In turn, `Cc1cccc(C)c1-n1nnnc1C1(C)CCC(=O)N1Cc1cccs1` (configuration not stated) came in with an AC50 greater than 100 µM.
Consider `CS(=O)(=O)N(CC(=O)N1CCc2ccccc2C1)c1ccc(Br)cc1`, for which the AC50 amounted to 47 µM.
In turn, `O=C(NCc1ccc(-c2nc3ccccc3s2)cc1)c1ccco1` gave an AC50 of 4.43 µM.
Regarding `O=C(Nc1ccc2c(c1)OCO2)c1cccc(S(=O)(=O)N2CCCC2)c1`, the AC50 is greater than 100 µM.
Regarding `CCN(c1ccccc1)S(=O)(=O)c1ccc(Cl)c(C(=O)NCc2ccco2)c1`, the AC50 came out at 38.5 µM.
Compound `COc1ccc(S(=O)(=O)N2CCCCN3[C@@H](CO)[C@H](c4ccc(C#CC(C)C)cc4)[C@@H]3C2)cc1` had an AC50 of 47 µM.
In the case of `CCOC(=O)c1[nH]c2ccccc2c1NC(=O)c1ccc(Br)o1`, the AC50 came to 41.7 µM.
Consider `CCOc1cccc2sc(N(CCCN(C)C)C(=O)c3ccc(S(=O)(=O)N4CCCCCC4)cc3)nc12`, for which the AC50 is greater than 100 µM.
In the case of `O=S(=O)(NOCc1ccc(Cl)cc1)c1ccc(Cl)cc1`, the AC50 is greater than 100 µM.
Same read-out and setting: next, `COC(=O)CNC(=O)COC(=O)c1ccc(Cl)nc1`: greater than 100 µM; `OCCN(Cc1ccccc1)Cc1ccc(F)c(F)c1`: greater than 100 µM.
`Cc1ccnc(NS(=O)(=O)c2ccc(NC(=O)c3ccc4c(c3)OCCO4)cc2)n1` returned an AC50 greater than 100 µM.
As for `CC(=O)c1ccc(Sc2ccccc2N)c([N+](=O)[O-])c1`, the AC50 is greater than 100 µM.
Compound `COC(=O)c1cc2c(c3c4cc(F)ccc4n(S(=O)(=O)c4cccc(C)c4)c13)C(=O)N(Cc1ccco1)C2` registered a half-maximal activity concentration (AC50) greater than 100 µM.
In turn, `NS(=O)(=O)c1cc(C(=O)OCC(=O)Nc2ccccc2[N+](=O)[O-])ccc1Cl` gave an AC50 greater than 100 µM.
The same measure, in the same setting: next, `COC(=O)c1cc(S(=O)(=O)NCc2ccc3c(c2)OCO3)cn1C`: greater than 100 µM.
`O=S1(=O)N[C@H](Cc2ccccc2)COc2cc(N3CCSCC3)ccc21` came in with a concentration at half-maximal activity (AC50) greater than 100 µM.
Take `C[C@@H]1CN([C@@H](C)CO)C(=O)c2cc(NC(=O)C3CC3)ccc2O[C@H]1CN(C)C(=O)Nc1ccc(C(F)(F)F)cc1`: the AC50 was greater than 100 µM.
As for `CS(=O)(=O)Nc1ccccc1C(=O)NCCSc1ccccc1`, the AC50 is greater than 100 µM.
On the same count and under the same terms, under `O=C(Nc1ccccc1N1CCOCC1)C1CCCCN1S(=O)(=O)c1ccccc1` (configuration not stated) stands greater than 100 µM.
On the same count and under the same terms, under `Cc1cccc(C)c1NC(=O)C1(C)CSCC(=O)N1CCOc1ccccc1` (configuration not stated) stands greater than 100 µM; under `Cc1ccccc1SCC(=O)OCC(=O)Nc1sccc1C(N)=O`, greater than 100 µM.
With `Cc1ccc(C2NC(c3ccc(C)cc3)C(C)C(=O)C2C)cc1` (configuration not stated), the half-maximal activity concentration (AC50) is greater than 100 µM.
Regarding `COc1cccc(OC)c1CNC(=O)CCSCc1ccccc1F`, the AC50 was greater than 100 µM.
The compound `O=S(=O)(Nc1ccccc1N1CCCCC1)c1cccs1` returned an AC50 greater than 100 µM.
Turning to `COc1ccc(CSc2nc3ccccc3c(=O)n2CCCN2CCOCC2)cc1F`, the AC50 is greater than 100 µM.
`Cc1ccc(Cc2c(-c3cccc(Br)c3)nc3ccc(C)cn23)cc1` returned an AC50 greater than 100 µM.
In the case of `CN(Cc1nnc(-c2ccc(F)cc2)o1)c1ccccc1`, the AC50 was greater than 100 µM.
The same measure, in the same setting: next, `Cn1cc(CN(CCO)Cc2cccs2)c(-c2cccc(Cl)c2)n1`: greater than 100 µM.
In turn, `CNC(=O)c1ccsc1NC(=O)c1ccc(S(=O)(=O)N2CCc3ccccc32)cc1` showed an AC50 greater than 100 µM.
Take `c1ccc(Cc2nc3ccccc3s2)cc1`: the AC50 was greater than 100 µM.
In the case of `CC1CCCC(NC(=O)COC(=O)[C@@H]2CC(O)CN2S(=O)(=O)c2ccc3c(c2)OCCO3)C1C` (some centres not stated), the AC50 was greater than 100 µM.
The same measure, in the same setting: under `COc1ccc(OCCC(=O)OCC(=O)NCCC2=CCCCC2)cc1` stands greater than 100 µM; under `CN1CCN(CC(=O)c2cc(C(C)(C)C)c(O)c(C(C)(C)C)c2)CC1`, greater than 100 µM; under `CCOc1ccc(C(C)=O)cc1CN1C(=O)NC2(CCCCCCC2)C1=O`, greater than 100 µM.
In turn, `CN1OC[C@@H]2CN(C(=O)c3ccco3)[C@H](c3ccc(-c4ccc(C#N)cc4)cc3)C[C@@H]21` had an AC50 greater than 100 µM.
As to `O=C(CN1CCCCC1)n1c2ccccc2c2ccccc21`, the AC50 is greater than 100 µM.
With `COc1ccccc1-c1noc2ncnc(Nc3ccccc3C)c12`, the AC50 is greater than 100 µM.
Take `O=C(c1cc(S(=O)(=O)N2CCOCC2)ccc1Cl)N1CCc2ccccc2C1`: the concentration at half-maximal activity (AC50) was greater than 100 µM.
Compound `CCC(C(=O)Nc1ccsc1C(=O)OC)c1ccccc1` (configuration not stated) yielded an AC50 greater than 100 µM.
Turning to `Cc1n[nH]c(C)c1S(=O)(=O)N1CCCC(C(=O)Nc2ccc(Br)cc2)C1` (configuration not stated), the AC50 was greater than 100 µM.
In the case of `CCOC(=O)c1cc(-c2ccc(OC)cc2)n[nH]1`, the AC50 is greater than 100 µM.
Compound `O=C(CC1SC(=O)N(Cc2ccccc2Cl)C1=O)Nc1nccs1` (configuration not stated) showed an AC50 greater than 100 µM.
Compound `C=CCn1c(SCC(=O)Nc2ccc3c(c2)OCCO3)nnc1-c1ccco1` showed an AC50 greater than 100 µM.
In the case of `CN(CC(=O)Nc1ccc(F)cc1)C(=O)COc1ccc([N+](=O)[O-])cc1Cl`, the AC50 is greater than 100 µM.
For `COc1cccc(NC(=O)COC(=O)Cc2ccc(Br)cc2)c1`, the AC50 was greater than 100 µM.
In turn, `COc1cc2ccccc2cc1C(=O)NCC(c1cccs1)N(C)C` (configuration not stated) displayed an AC50 greater than 100 µM.
With `Fc1ccc(Br)cc1SCCc1ccncc1`, the AC50 was greater than 100 µM.
The compound `O=C(NCc1ccc2c(c1)OCO2)c1sccc1Br` returned a concentration at half-maximal activity (AC50) greater than 100 µM.
Consider `O=C(Nc1ccc(F)c(Cl)c1)C1CC2CCC1C2` (configuration not stated), for which the concentration at half-maximal activity (AC50) is greater than 100 µM.
In the case of `CCCNc1ccc(C(=O)OCC)cc1[N+](=O)[O-]`, the AC50 was greater than 100 µM.
As to `Cc1ccc(NC(=O)c2ccccc2F)c(NC(=O)c2ccccc2F)c1`, the concentration at half-maximal activity (AC50) was greater than 100 µM.
Compound `CCOCCCNC(=O)C(NC(=O)c1ccccc1O)c1ccc(C)cc1` (configuration not stated) registered an AC50 greater than 100 µM.
Still for that read-out and setting: next, `Cc1ccc(S(=O)(=O)NC(C)C(=O)NCc2ccc(Cl)cc2)cc1` (configuration not stated): greater than 100 µM; `CCN(CC)c1nc(Oc2ccc(C(=O)OC)cc2)nc(N2CCOCC2)n1`: greater than 100 µM; `Nc1ccccc1Sc1c[nH]c2ccccc12`: greater than 100 µM.
Still for that read-out and setting: under `COc1ccc(/C=C/c2nc3ccccc3n2Cc2ccccc2OC)cc1` stands greater than 100 µM.
With `Nc1ccc2nc(-c3ccc(Cl)cc3)[nH]c2c1`, the AC50 is greater than 100 µM.
Still for that read-out and setting: next, `COc1cccc(C(=O)c2c[nH]c(C(=O)NCc3cccnc3)c2)c1`: greater than 100 µM; `O=C(Nc1cccc(S(=O)(=O)c2cccc(NC(=O)C3CC3)c2)c1)C1CC1`: 46.7 µM; `COc1ccc(C(CC(=O)c2ccc(O)cc2)S(=O)(=O)c2ccc(C)cc2)cc1` (configuration not stated): greater than 100 µM.
